According to patent US20250188032A1, “NITROGEN-CONTAINING HETEROCYCLIC COMPOUNDS AND USES THEREOF” (BNH RESEARCH CO., LTD., priority 2022, published 2025):

What was measured:
[1] = tested on: APP/PS1 mice sensory cerebral cortex; experiment: TC potency and GABA/AMPA ratio in sensory cortex of Alzheimer's animal model; assay type: in vivo
Protocol: For intravenous injection, the tail vein injection method was used. […] In the drug injection test, the compound was administered once a day for about 11 to 13 days. 5 mice were used for the compound administration group and the control group, respectively.
For TC or hippocampus slice preparation. 9 to 10 weeks-old male C57BL/6J mice were anesthetized with isoflurane. Then, the brain was rapidly cooled via transcardial perfusion with ice-cold sucrose-artificial cerebrospinal fluid (aCSF). The brain was removed and placed in ice-cold sucrose aCSF. Paracoronal slices were prepared at an angle of 50° relative to the midline on a ramp at an angle of 10°. […]
For the minimal stimulation protocol (Potency), VB thalamic stimulation intensity was adjusted to find the lowest intensity that elicited a mixture of synaptic responses and failures. Failure rate was calculated as the number of failures/total number of trials. Potency was calculated as the mean EPSC peak amplitude excluding failures (see Chittajallu & Isaac, 2010, Emergence of cortical inhibition by coordinated sensory-driven plasticity at distinct synaptic loci, DOI: 10.1038/nn.2639; see Isaac et al., 1997, Silent Synapses during Development of Thalamocortical Inputs, https://doi.org/10.1016/S08966273((0)80267-6; and see Stevens & Wang, 1995, Facilitation and depression at single central synapses, DOI: 10.1016/08966273(95)90223-6). […]

GluN2B = experiment: Western blot of GluN2B protein in cultured fetal cortical cells; assay type: cell-based, mice
Protocol: The amount of GluN2B reacted with the compound of the present disclosure was measured using Western blot. The fetal cerebral cortex was extracted from mice at 17 days of gestation, dissociated into single cells, cultured for 13 days, and treated with BnH drugs for 24 hours. The drug-treated cells were subjected to protein lysate preparation using RIPA protein lysis buffer containing protease and phosphatase inhibitors. The protein concentration was determined using a BCA protein assay kit (Pierce Biotechnology) using bovine serum albumin as a standard. Equal amounts of protein (20 μg per lane) were separated by electrophoresis on SDS-polyacrylamide gels at 90 V for 2 hours, then transferred from the SDS-polyacrylamide gel to PVDF membrane at 100 V for 1 hour. Then, primary reaction with GluN2B antibody (ab65783, Abcam) was performed at 4° C. for 1 day, washed three times at 10-minutes intervals with 1×PBT, and secondary reaction was performed with anti-mouse antibody (sc-2357, Santa Cruz) for 1 hour, followed by washing three times at 10-minutes intervals with 1×PBT. Western blotting was performed as described above to confirm GluN2B protein expression. Subsequently, each blot was re-probed using anti-β-actin antibody (sc-47778, Santa Cruz). Housekeeping protein β-actin was detected as a normalization control.
The increase and decrease of BnH12 series were confirmed by setting the vehicle to 1 (N for each group was 3 or more).
Using the experimental procedure described in Example 3, it was determined whether various BnH12 series compounds increase GluN2B expression, and the results are shown in Table 6. These in vitro experimental results are expressed as relative values to the group (vehicle) that was not treated with the compound, with the effect of the group set to 1.

C[C@@H]1CC[C@H](C(=O)O)CN1C(=O)Cc1ccc(F)cc1Cl [BnH12001 enantiomer (3S,6R, 98%<), (3S,6R)-1-(2-(2-chloro-4-fluorophenyl)acetyl)-6-methylpiperidine-3-carboxylic acid]
Balance of excitation/inhibition (GABA/AMPA ratio) [1]: maintaining the balance of excitation/inhibition | Excitatory TC synaptic potency (TC potency) [1]: increased the excitatory TC synaptic potency | Effect on GluN2B expression compared to the vehicle (GluN2B; comment on Table 6): excellent effects | GluN2B expression, Western blot results, Mean (GluN2B; relative value, vehicle set to 1, treated for 24 hours, N 3 or more): 1.548
